Assay results: US10765114B2, “4-amino-6-(pyridyl and 2-substitutedphenyl)-picolinates and 6-amino-2-(pyridyl and 2-substitutedphenyl)-pyrimidine-4-carboxylates and their use as herbicides” (Dow AgroSciences LLC, priority 2013, dated 2020)

system: Key Broadleaf Weed and Crop Species; assay: Post-Emergent Test II (Table 5); format: in vivo; conditions: Abutilon theophrasti, post-emergence, 336 h, ABUTH: velvetleaf (Abutilon theophrasti), application rate 70 (kg ai/ha; footnote: g ai/ha), read-out: Visual Growth Reduction (%) 14 Days After Application ABUTH
Procedure, shortened: (§1)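 Visual injury ratings (0 = no injury, 100 = complete kill) taken 14 days after treatment, relative to untreated controls. Compounds, in an acetone/DMSO aqueous carrier with crop oil and surfactant, were applied by track sprayer at 187 L/ha, in a twofold dilution series from the top rate, to plants at the first to second true-leaf stage.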

| Compound | pest or weed control at 70 g/ha |
| --- | --- |
| COC(=O)c1nc(-c2ccc(C(F)(F)F)nc2)c(Cl)c(N)c1Cl [Compound 83] | 60 to 74% |

same assay, conditions: Abutilon theophrasti, post-emergence, 336 h, ABUTH: velvetleaf (Abutilon theophrasti), application rate 140 (kg ai/ha; footnote: g ai/ha), read-out: Visual Growth Reduction (%) 14 Days After Application ABUTH

| Compound | pest or weed control at 140 g/ha |
| --- | --- |
| COC(=O)c1nc(-c2ccc(C(F)(F)F)nc2)c(Cl)c(N)c1Cl [Compound 83] | 60 to 74% |

same assay, conditions: Amaranthus retroflexus, post-emergence, 336 h, AMARE: redroot pigweed (Amaranthus retroflexus), application rate 70 (kg ai/ha; footnote: g ai/ha), read-out: Visual Growth Reduction (%) 14 Days After Application AMARE

| Compound | pest or weed control at 70 g/ha |
| --- | --- |
| COC(=O)c1nc(-c2ccc(C(F)(F)F)nc2)c(Cl)c(N)c1Cl [Compound 83] | 0 to 29% |

same assay, conditions: Amaranthus retroflexus, post-emergence, 336 h, AMARE: redroot pigweed (Amaranthus retroflexus), application rate 140 (kg ai/ha; footnote: g ai/ha), read-out: Visual Growth Reduction (%) 14 Days After Application AMARE

| Compound | pest or weed control at 140 g/ha |
| --- | --- |
| COC(=O)c1nc(-c2ccc(C(F)(F)F)nc2)c(Cl)c(N)c1Cl [Compound 83] | 0 to 29% |

same assay, conditions: Brassica napus, post-emergence, 336 h, BRSSS: oilseed rape, canola (Brassica napus), application rate 70 (kg ai/ha; footnote: g ai/ha), read-out: Visual Growth Reduction (%) 14 Days After Application BRSSS

| Compound | pest or weed control at 70 g/ha |
| --- | --- |
| COC(=O)c1nc(-c2ccc(C(F)(F)F)nc2)c(Cl)c(N)c1Cl [Compound 83] | 45 to 59% |

same assay, conditions: Brassica napus, post-emergence, 336 h, BRSSS: oilseed rape, canola (Brassica napus), application rate 140 (kg ai/ha; footnote: g ai/ha), read-out: Visual Growth Reduction (%) 14 Days After Application BRSSS

| Compound | pest or weed control at 140 g/ha |
| --- | --- |
| COC(=O)c1nc(-c2ccc(C(F)(F)F)nc2)c(Cl)c(N)c1Cl [Compound 83] | 45 to 59% |

same assay, conditions: Chenopodium album, post-emergence, 336 h, CHEAL: lambsquarters (Chenopodium album), application rate 70 (kg ai/ha; footnote: g ai/ha), read-out: Visual Growth Reduction (%) 14 Days After Application CHEAL

| Compound | pest or weed control at 70 g/ha |
| --- | --- |
| COC(=O)c1nc(-c2ccc(C(F)(F)F)nc2)c(Cl)c(N)c1Cl [Compound 83] | 60 to 74% |

same assay, conditions: Chenopodium album, post-emergence, 336 h, CHEAL: lambsquarters (Chenopodium album), application rate 140 (kg ai/ha; footnote: g ai/ha), read-out: Visual Growth Reduction (%) 14 Days After Application CHEAL

| Compound | pest or weed control at 140 g/ha |
| --- | --- |
| COC(=O)c1nc(-c2ccc(C(F)(F)F)nc2)c(Cl)c(N)c1Cl [Compound 83] | 75 to 84% |

same assay, conditions: Euphorbia heterophylla, post-emergence, 336 h, EPHHL: wild poinsettia (Euphorbia heterophylla), application rate 70 (kg ai/ha; footnote: g ai/ha), read-out: Visual Growth Reduction (%) 14 Days After Application EPHHL

| Compound | pest or weed control at 70 g/ha |
| --- | --- |
| COC(=O)c1nc(-c2ccc(C(F)(F)F)nc2)c(Cl)c(N)c1Cl [Compound 83] | 0 to 29% |

same assay, conditions: Euphorbia heterophylla, post-emergence, 336 h, EPHHL: wild poinsettia (Euphorbia heterophylla), application rate 140 (kg ai/ha; footnote: g ai/ha), read-out: Visual Growth Reduction (%) 14 Days After Application EPHHL

| Compound | pest or weed control at 140 g/ha |
| --- | --- |
| COC(=O)c1nc(-c2ccc(C(F)(F)F)nc2)c(Cl)c(N)c1Cl [Compound 83] | 30 to 44% |

same assay, conditions: Helianthus annuus, post-emergence, 336 h, HELAN: sunflower (Helianthus annuus), application rate 70 (kg ai/ha; footnote: g ai/ha), read-out: Visual Growth Reduction (%) 14 Days After Application HELAN

| Compound | pest or weed control at 70 g/ha |
| --- | --- |
| COC(=O)c1nc(-c2ccc(C(F)(F)F)nc2)c(Cl)c(N)c1Cl [Compound 83] | 85 to 94% |

same assay, conditions: Helianthus annuus, post-emergence, 336 h, HELAN: sunflower (Helianthus annuus), application rate 140 (kg ai/ha; footnote: g ai/ha), read-out: Visual Growth Reduction (%) 14 Days After Application HELAN

| Compound | pest or weed control at 140 g/ha |
| --- | --- |
| COC(=O)c1nc(-c2ccc(C(F)(F)F)nc2)c(Cl)c(N)c1Cl [Compound 83] | 85 to 94% |

same assay, conditions: Viola tricolor, post-emergence, 336 h, VIOTR: wild pansy (Viola tricolor), application rate 70 (kg ai/ha; footnote: g ai/ha), read-out: Visual Growth Reduction (%) 14 Days After Application VIOTR

| Compound | pest or weed control at 70 g/ha |
| --- | --- |
| COC(=O)c1nc(-c2ccc(C(F)(F)F)nc2)c(Cl)c(N)c1Cl [Compound 83] | 0 to 29% |

same assay, conditions: Viola tricolor, post-emergence, 336 h, VIOTR: wild pansy (Viola tricolor), application rate 140 (kg ai/ha; footnote: g ai/ha), read-out: Visual Growth Reduction (%) 14 Days After Application VIOTR

| Compound | pest or weed control at 140 g/ha |
| --- | --- |
| COC(=O)c1nc(-c2ccc(C(F)(F)F)nc2)c(Cl)c(N)c1Cl [Compound 83] | 0 to 29% |

system: Key Grass and Sedge Weeds as well as Grass Crops; assay: Post-Emergent Test II (Table 6); format: in vivo; conditions: post-emergence, 336 h, CYPSS, 70 g ai/ha, 14 days after application, read-out: Visual Growth Reduction (%) 14 Days After Application CYPSS
Procedure, shortened: as §1

| Compound | pest or weed control at 70 g/ha |
| --- | --- |
| COC(=O)c1nc(-c2ccc(C(F)(F)F)nc2)c(Cl)c(N)c1Cl [Compound 83] | 30 to 44% |
